From the CheMixHub drug solubility set

Assay: xn = mol fraction of the nth substance listed, in the solute-free solvent

C#CC1(O)C=CC2C3CCC4=CC(=O)CCC4C3CCC21CC (stereo unspecified) + CO + O
solubility (g/100 g solution)
Details | x2 = 0.05881 | x2 = 0.1233 | x2 = 0.1942 | x2 = 0.2727 | x2 = 0.3599 | x2 = 0.4576 | x2 = 0.5675 | x2 = 0.6923 | x2 = 0.835
283.15 K | 0.314 | 0.312 | 0.374 | 0.434 | 0.812 | 1.22 | 1.5 | 3.21 | 3.44
293.15 K | 0.435 | 0.437 | 0.512 | 0.594 | 1.2 | 1.81 | 2.45 | 4.24 | 5.12
298.15 K | 0.503 | 0.51 | 0.598 | 0.692 | 1.49 | 2.18 | 3.09 | 4.83 | 6.09
303.15 K | 0.578 | 0.592 | 0.696 | 0.804 | 1.8 | 2.59 | 3.85 | 5.45 | 7.24
308.15 K | 0.66 | 0.687 | 0.811 | 0.932 | 2.16 | 3.06 | 4.78 | 6.1 | 8.54
313.15 K | 0.746 | 0.791 | 0.943 | 1.08 | 2.55 | 3.6 | 5.87 | 6.79 | 9.97
318.15 K | 0.838 | 0.905 | 1.09 | 1.25 | 2.97 | 4.2 | 7.12 | 7.51 | 11.7
323.15 K | 0.934 | 1.03 | 1.27 | 1.44 | 3.41 | 4.87 | 8.61 | 8.26 | 13.5

CC1CCC2C(C)C(OC(=O)CCC(=O)O)OC3OC4(C)CCC1C32OO4 (stereo unspecified) + CO + O
solubility (g/100 g solution)
Details | 278.15 K | 283.15 K | 288.15 K | 293.15 K | 298.15 K | 303.15 K | 308.15 K | 313.15 K | 318.15 K
x2 = 0.05887 | 0.112 | 0.144 | 0.181 | 0.228 | 0.276 | 0.346 | 0.424 | 0.514 | 0.625
x2 = 0.1235 | 0.366 | 0.464 | 0.566 | 0.693 | 0.82 | 0.997 | 1.19 | 1.41 | 1.67
x2 = 0.1941 | 0.818 | 0.996 | 1.2 | 1.44 | 1.67 | 1.99 | 2.35 | 2.73 | 3.17
x2 = 0.2725 | 1.42 | 1.69 | 2 | 2.36 | 2.71 | 3.17 | 3.68 | 4.22 | 4.83
x2 = 0.36 | 2.09 | 2.46 | 2.87 | 3.34 | 3.8 | 4.37 | 5.01 | 5.65 | 6.39
x2 = 0.4579 | 2.79 | 3.23 | 3.73 | 4.29 | 4.84 | 5.49 | 6.23 | 6.99 | 7.79
x2 = 0.5666 | 3.54 | 4 | 4.58 | 5.22 | 5.83 | 6.54 | 7.36 | 8.18 | 9.06
x2 = 0.6924 | 4.36 | 4.87 | 5.46 | 6.22 | 6.9 | 7.65 | 8.52 | 9.37 | 10.3
x2 = 0.8362 | 5.15 | 5.63 | 6.33 | 7.1 | 7.82 | 8.58 | 9.48 | 10.4 | 11.2

CCOC(=O)OC1=C(c2cc(C)ccc2C)C(=O)NC12CCC(OC)CC2 (stereo unspecified) + CO + O
solubility (g/100 g solution)
Details | 278.15 K | 283.15 K | 288.15 K | 293.15 K | 298.15 K | 303.15 K | 308.15 K | 313.15 K | 318.15 K
x2 = 0.2 | 0.00416 | 0.0064 | 0.0104 | 0.0162 | 0.0253 | 0.0409 | 0.0592 | 0.0833 | 0.132
x2 = 0.4 | 0.292 | 0.365 | 0.473 | 0.613 | 0.803 | 1.07 | 1.44 | 1.9 | 2.64
x2 = 0.6 | 1.47 | 1.82 | 2.22 | 2.8 | 3.56 | 4.5 | 5.89 | 7.65 | 9.83
x2 = 0.8 | 3.55 | 4.27 | 5.22 | 6.38 | 8.03 | 10.1 | 12.7 | 15.7 | 19.2

c1ccc(-c2ccc(C(c3ccccc3)n3ccnc3)cc2)cc1 (stereo unspecified) + CO + O
solubility (g/100 g solution)
Details | 278.15 K | 283.15 K | 288.15 K | 293.15 K | 298.15 K | 303.15 K | 308.15 K | 313.15 K | 318.15 K
x2 = 0.05881 | 0.0843 | 0.114 | 0.153 | 0.198 | 0.236 | 0.32 | 0.418 | 0.51 | 0.631
x2 = 0.1233 | 0.301 | 0.4 | 0.525 | 0.671 | 0.792 | 1.05 | 1.35 | 1.63 | 1.98
x2 = 0.1942 | 0.641 | 0.845 | 1.1 | 1.39 | 1.74 | 2.21 | 2.78 | 3.35 | 3.94
x2 = 0.2727 | 0.98 | 1.28 | 1.66 | 2.1 | 2.5 | 3.23 | 4.06 | 4.89 | 5.86
x2 = 0.3599 | 1.23 | 1.68 | 2.17 | 2.73 | 3.35 | 4.17 | 5.19 | 6.23 | 7.39
x2 = 0.4576 | 1.42 | 1.87 | 2.41 | 3.07 | 3.72 | 4.76 | 5.94 | 7.21 | 8.64
x2 = 0.5675 | 1.6 | 2.11 | 2.72 | 3.56 | 4.38 | 5.54 | 6.87 | 8.37 | 9.89
x2 = 0.6923 | 1.81 | 2.39 | 3.08 | 3.95 | 4.89 | 6.2 | 7.71 | 9.46 | 11.3
x2 = 0.835 | 2.04 | 2.8 | 3.67 | 4.72 | 5.88 | 7.29 | 8.87 | 10.8 | 12.9

Cc1ncc(CO)c(CO)c1O.Cl + O + CC#N
solubility (g/100 g solution)
Details | 278.15 K | 283.15 K | 288.15 K | 293.15 K | 298.15 K | 303.15 K | 308.15 K | 313.15 K
x2 = 0.3 | 0.681 | 0.776 | 0.889 | 1.02 | 1.16 | 1.3 | 1.47 | 1.67
x2 = 0.4 | 2.06 | 2.27 | 2.65 | 2.92 | 3.32 | 3.7 | 4.04 | 4.51
x2 = 0.5 | 3.81 | 4.09 | 4.73 | 5.11 | 5.79 | 6.6 | 7.19 | 8.12
x2 = 0.6 | 5.82 | 6.51 | 7.44 | 8.31 | 9.5 | 10.3 | 11.2 | 12.6
x2 = 0.7 | 8.18 | 9.25 | 10.4 | 11.8 | 13.4 | 14.2 | 15.5 | 17.9
x2 = 0.8 | 10.6 | 11.9 | 13.4 | 15.2 | 16.6 | 18.3 | 20 | 23.4
x2 = 0.9 | 11.5 | 13.3 | 14.6 | 17 | 18.6 | 20.7 | 22.7 | 26.3

Cc1ncc(CO)c(CO)c1O.Cl + O + CC(C)O
solubility (g/100 g solution)
Details | 278.15 K | 283.15 K | 288.15 K | 293.15 K | 298.15 K | 303.15 K | 308.15 K | 313.15 K
x2 = 0.3 | 0.401 | 0.512 | 0.632 | 0.825 | 1.01 | 1.26 | 1.54 | 1.89
x2 = 0.4 | 0.684 | 0.867 | 1.11 | 1.47 | 1.84 | 2.34 | 2.86 | 3.53
x2 = 0.5 | 1.35 | 1.72 | 2.2 | 2.8 | 3.42 | 4.25 | 5.16 | 6.25
x2 = 0.6 | 2.56 | 3.18 | 3.92 | 4.83 | 5.89 | 7.02 | 8.34 | 9.79
x2 = 0.7 | 3.45 | 4.36 | 5.42 | 6.76 | 8.29 | 10.1 | 12 | 14.3
x2 = 0.8 | 4.83 | 6.11 | 7.62 | 9.29 | 11.3 | 13.4 | 15.8 | 18.8
x2 = 0.9 | 7.31 | 8.78 | 10.7 | 12.7 | 14.4 | 16.6 | 19.7 | 23.9

Cl.N=C(N)NC(=N)N1CCOCC1 + O + CC(C)O
solubility (g/100 g solution)
Details | x2 = 0.1 | x2 = 0.2 | x2 = 0.3 | x2 = 0.4 | x2 = 0.5 | x2 = 0.6 | x2 = 0.7 | x2 = 0.8 | x2 = 0.9
283.15 K | 0.441 | 0.892 | 2.04 | 4.24 | 8.16 | 13.2 | 19.8 | 25.8 | 35
293.15 K | 0.499 | 1.2 | 2.75 | 5.73 | 10.6 | 15.4 | 23.9 | 30.8 | 37.5
303.15 K | 0.607 | 1.51 | 3.56 | 7.55 | 13.8 | 20.6 | 29.6 | 36.8 | 44.3
313.15 K | 0.831 | 1.73 | 4.8 | 9.86 | 17.4 | 23.7 | 34.9 | 42.9 | 50.8
323.15 K | 1.11 | 2.09 | 5.83 | 12.6 | 21.2 | 30 | 39.1 | 45.7 | 55.9

Cc1ncc(CO)c(CO)c1O.Cl + O + CCCO
solubility (g/100 g solution)
Details | 278.15 K | 283.15 K | 288.15 K | 293.15 K | 298.15 K | 303.15 K | 308.15 K | 313.15 K
x2 = 0.3 | 0.893 | 1.08 | 1.2 | 1.42 | 1.8 | 2.05 | 2.29 | 2.62
x2 = 0.4 | 1.59 | 1.9 | 2.23 | 2.65 | 3.25 | 3.59 | 4.15 | 4.99
x2 = 0.5 | 2.6 | 3.07 | 3.42 | 4.1 | 5 | 5.68 | 6.43 | 7.5
x2 = 0.6 | 3.83 | 4.45 | 4.91 | 6.02 | 7.03 | 8.29 | 9.47 | 11.3
x2 = 0.7 | 5.37 | 6.24 | 6.84 | 8.27 | 9.8 | 11.7 | 13.3 | 15.1
x2 = 0.8 | 6.99 | 8.36 | 9.28 | 10.7 | 12.8 | 15.4 | 17.8 | 19.6
x2 = 0.9 | 8.57 | 10.3 | 11.9 | 13.8 | 16 | 19 | 21.1 | 24.1

NC(=O)NC1NC(=O)NC1=O (stereo unspecified) + O + CCO
solubility (g/100 g solution)
Details | 288.15 K | 293.15 K | 298.15 K | 303.15 K | 308.15 K | 313.15 K | 318.15 K | 323.15 K | 328.15 K | 333.15 K
x2 = 0.264 | 0.0433 | 0.0548 | 0.0707 | 0.0891 | 0.116 | 0.137 | 0.163 | 0.189 | 0.225 | 0.262
x2 = 0.447 | 0.0924 | 0.108 | 0.137 | 0.174 | 0.216 | 0.263 | 0.298 | 0.355 | 0.417 | 0.46
x2 = 0.683 | 0.159 | 0.202 | 0.268 | 0.332 | 0.409 | 0.535 | 0.646 | 0.76 | 0.923 | 1.09
x2 = 0.829 | 0.239 | 0.306 | 0.394 | 0.487 | 0.63 | 0.785 | 1.02 | 1.21 | 1.48 | 1.74
x2 = 0.928 | 0.264 | 0.353 | 0.5 | 0.619 | 0.787 | 0.968 | 1.3 | 1.58 | 1.97 | 2.33

C#CC1(O)C=CC2C3CCC4=CC(=O)CCC4C3CCC21CC (stereo unspecified) + O + CO
288.15 K
Details | solubility (g/100 g solution)
x2 = 0.165 | 4.27
x2 = 0.3077 | 3.7
x2 = 0.4325 | 1.93
x2 = 0.5424 | 1.49
x2 = 0.6401 | 1
x2 = 0.8058 | 0.438
x2 = 0.8767 | 0.371
x2 = 0.9412 | 0.371
